The record followed here is patent EP4596537A1, “NOVEL FLUORENE DERIVATIVE COMPOUND AND USE THEREOF” (JD Bioscience Inc., priority 2022, dated 2024).

The first experiment has as its system PDHE1α S293. The experiment can be described thus: In vitro PDH S293 phosphorylation inhibition (Western blot) in HEK293 cells. Type of experiment: cell-based, human. The note with it: 5 hours, at 1 µM. The method, then: HEK293 cells, which are human embryonic kidney cells, were seeded at a density of 2 × 10^6 in a 60 mm dish, and cultured for 24 hours. After replacing the medium with a medium comprising 0.5% FBS, the compounds prepared according to Examples 1 to 54 were treated at various concentrations. 5 hours later, the cells were scraped off and collected into a 15 mL conical tube and centrifuged at 1500 rpm for 10 minutes. The supernatant was discarded, the resultant was washed with 1× PBS, and transferred to a 1.5 mL e-tube, followed by centrifugation at 10,000 rpm for 5 minutes. The supernatant was discarded again, a lysis buffer was added, and the cells were lysed on ice for 30 minutes. The cells were vortexed every 10 minutes to completely lyse, and centrifuged again at 10,000 rpm for 15 minutes at 4°C, and the supernatant was collected. The protein in the supernatant was quantified using BCA technique, and the sample buffer was added to 20 µg of protein and allowed to react at 70°C for 5 minutes. The expression of PDHE1α S232, S293, S300, and total PDHE1α proteins was detected by Western blot, and the resulting PDH S293 phosphorylation inhibition is shown in Table 6. […]
In general terms: Immunoblotting shows a protein as a band on a membrane.
In the case of “N'-(3-chloro-5-(trifluoromethyl)pyridin-2-yl)-2-(4-(2-fluoro-9-hydroxy-9-(trifluoromethyl)-9H-fluoren-4-yl)-1H-pyrazol-1-yl)propanehydrazide [Example 32]”, the “PDH S293 phosphorylation inhibition” value is reported as “++ (50% or more of PHDE1α S293 expression inhibition rate at 1 µM)”.
The same measure, in the same setting: in the case of “N'-(3-chloro-5-(trifluoromethyl)pyridin-2-yl)-2-(4-(9-hydroxy-2-methoxy-9-(trifluoromethyl)-9H-fluoren-4-yl)-1H-pyrazol-1-yl)propanehydrazide [Example 33]” it was “++ (50% or more of PHDE1α S293 expression inhibition rate at 1 µM)”.

The same experiment, now with this note: Homo sapiens, 5 hours.
For `COc1cc(-c2cnn(C(C)C(=O)NNc3ncccn3)c2)c2c(c1)C(O)(C(F)(F)F)c1ccccc1-2` (centres unmarked) [Example 29, 2-(4-(9-hydroxy-2-methoxy-9-(trifluoromethyl)-9H-fluoren-4-yl)-1H-pyrazol-1-yl)-N'-(pyrimidin-2-yl)propanehydrazide], the inhibition at 1 µM was at least 50%.
Same read-out and setting: in the case of `CC(C(=O)NNc1cccnc1)n1cc(-c2cc(F)cc3c2-c2ccccc2C3(O)C(F)(F)F)cn1` (centres unmarked) [Example 30, 2-(4-(2-fluoro-9-hydroxy-9-(trifluoromethyl)-9H-fluoren-4-yl)-1H-pyrazol-1-yl)-N'-(pyridin-3-yl)propanehydrazide] it was at least 50%; in that of `COc1cc(-c2cnn(C(C)C(=O)NNc3cccnc3)c2)c2c(c1)C(O)(C(F)(F)F)c1ccccc1-2` (centres unmarked) [Example 31, 2-(4-(9-hydroxy-2-methoxy-9-(trifluoromethyl)-9H-fluoren-4-yl)-1H-pyrazol-1-yl)-N'-(pyridin-3-yl)propanehydrazide], at least 50%.
Compound `CC(C(=O)NNc1ccncc1)n1cc(-c2cc(F)cc3c2-c2ccccc2C3(O)C(F)(F)F)cn1` (centres unmarked) [Example 34, 2-(4-(2-fluoro-9-hydroxy-9-(trifluoromethyl)-9H-fluoren-4-yl)-1H-pyrazol-1-yl)-N'-(pyridin-4-yl)propanehydrazide] had an inhibition at 1 µM of at least 50%.
On the same count and under the same terms, under `CC(C(=O)NNc1ncnc2ccccc12)n1cc(-c2cc(F)cc3c2-c2ccccc2C3(O)C(F)(F)F)cn1` (centres unmarked) [Example 35, 2-(4-(2-fluoro-9-hydroxy-9-(trifluoromethyl)-9H-fluoren-4-yl)-1H-pyrazol-1-yl)-N'-(quinazolin-4-yl)propanehydrazide] stands at least 50%; under `CC(C(=O)NNc1ccnc2ccccc12)n1cc(-c2cc(F)cc3c2-c2ccccc2C3(O)C(F)(F)F)cn1` (centres unmarked) [Example 36, 2-(4-(2-fluoro-9-hydroxy-9-(trifluoromethyl)-9H-fluoren-4-yl)-1H-pyrazol-1-yl)-N'-(quinolin-4-yl)propanehydrazide], at least 50%.
Same read-out and setting: in the case of `CC(C(=O)NNc1cnc2ccccc2n1)n1cc(-c2cc(F)cc3c2-c2ccccc2C3(O)C(F)(F)F)cn1` (centres unmarked) [Example 37, 2-(4-(2-fluoro-9-hydroxy-9-(trifluoromethyl)-9H-fluoren-4-yl)-1H-pyrazol-1-yl)-N'-(quinoxalin-2-yl)propanehydrazide] it was at least 50%.
Same read-out and setting: in the case of `CC(C(=O)NNc1cc2ccccc2[nH]c1=O)n1cc(-c2cc(F)cc3c2-c2ccccc2C3(O)C(F)(F)F)cn1` (centres unmarked) [Example 38, 2-(4-(2-fluoro-9-hydroxy-9-(trifluoromethyl)-9H-fluoren-4-yl)-1H-pyrazol-1-yl)-N'-(2-oxo-1,2-dihydroquinolin-3-yl)propanehydrazide] it was at least 50%; in that of `CC(C(=O)NNc1ccc2ccccc2n1)n1cc(-c2cc(F)cc3c2-c2ccccc2C3(O)C(F)(F)F)cn1` (centres unmarked) [Example 39, 2-(4-(2-fluoro-9-hydroxy-9-(trifluoromethyl)-9H-fluoren-4-yl)-1H-pyrazol-1-yl)-N'-(quinolin-2-yl)propanehydrazide], at least 50%.
Take `CC(C(=O)NNc1cc(=O)n(C)c2ccccc12)n1cc(-c2cc(F)cc3c2-c2ccccc2C3(O)C(F)(F)F)cn1` (centres unmarked) [Example 40, 2-(4-(2-fluoro-9-hydroxy-9-(trifluoromethyl)-9H-fluoren-4-yl)-1H-pyrazol-1-yl)-N'-(1-methyl-2-oxo-1,2-dihydroquinolin-4-yl)propanehydrazide]: the inhibition at 1 µM is at least 50%.
On the same count and under the same terms, in the case of `CC(C(=O)NNc1ccc2nccn2n1)n1cc(-c2cc(F)cc3c2-c2ccccc2C3(O)C(F)(F)F)cn1` (centres unmarked) [Example 41, 2-(4-(2-fluoro-9-hydroxy-9-(trifluoromethyl)-9H-fluoren-4-yl)-1H-pyrazol-1-yl)-N'-(imidazo[1,2-b]pyridazin-6-yl)propanehydrazide] it was at least 50%; in that of `CC(C(=O)NNc1nc2ccccc2s1)n1cc(-c2cc(F)cc3c2-c2ccccc2C3(O)C(F)(F)F)cn1` (centres unmarked) [Example 42, N'-(benzo[d]thiazol-2-yl)-2-(4-(2-fluoro-9-hydroxy-9-(trifluoromethyl)-9H-fluoren-4-yl)-1H-pyrazol-1-yl)propanehydrazide], at least 50%.
The compound `CCC(C(=O)NNc1ccc(F)cc1)n1cc(-c2cc(F)cc3c2-c2ccccc2C3(O)C(F)(F)F)cn1` (centres unmarked) [Example 43, 2-(4-(2-fluoro-9-hydroxy-9-(trifluoromethyl)-9H-fluoren-4-yl)-1H-pyrazol-1-yl)-N'-(4-fluorophenyl)butanehydrazide] displayed an inhibition at 1 µM of at least 50%.
The same measure, in the same setting: under `CC(C)C(C(=O)NNc1ccc(F)cc1)n1cc(-c2cc(F)cc3c2-c2ccccc2C3(O)C(F)(F)F)cn1` (centres unmarked) [Example 44, 2-(4-(2-fluoro-9-hydroxy-9-(trifluoromethyl)-9H-fluoren-4-yl)-1H-pyrazol-1-yl)-N'-(4-fluorophenyl)-3-methylbutanehydrazide] stands at least 50%; under `CC(C)CC(C(=O)NNc1ccc(F)cc1)n1cc(-c2cc(F)cc3c2-c2ccccc2C3(O)C(F)(F)F)cn1` (centres unmarked) [Example 45, 2-(4-(2-fluoro-9-hydroxy-9-(trifluoromethyl)-9H-fluoren-4-yl)-1H-pyrazol-1-yl)-N'-(4-fluorophenyl)-4-methylpentanehydrazide], at least 50%; under `O=C(NNc1ccc(F)cc1)C(CC1CCCCC1)n1cc(-c2cc(F)cc3c2-c2ccccc2C3(O)C(F)(F)F)cn1` (centres unmarked) [Example 46, 3-cyclohexyl-2-(4-(2-fluoro-9-hydroxy-9-(trifluoromethyl)-9H-fluoren-4-yl)-1H-pyrazol-1-yl)-N'-(4-fluorophenyl)propanehydrazide], at least 50%.
On the same count and under the same terms, under `CC(C)(C(=O)NNc1ccc(F)cc1)n1cc(-c2cc(F)cc3c2-c2ccccc2C3(O)C(F)(F)F)cn1` (centres unmarked) [Example 47, 2-(4-(2-fluoro-9-hydroxy-9-(trifluoromethyl)-9H-fluoren-4-yl)-1H-pyrazol-1-yl)-N'-(4-fluorophenyl)-2-methylpropanehydrazide] stands at least 50%; under `C[C@@H](C(=O)NNc1ccc(F)cc1)n1cc(-c2cc(F)cc3c2-c2ccccc2[C@@]3(O)C(F)(F)F)cn1` [Example 48, (S)-2-(4-((S)-2-fluoro-9-hydroxy-9-(trifluoromethyl)-9H-fluoren-4-yl)-1H-pyrazol-1-yl)-N'-(4-fluorophenyl)propanehydrazide], at least 50%; under `C[C@H](C(=O)NNc1ccc(F)cc1)n1cc(-c2cc(F)cc3c2-c2ccccc2[C@]3(O)C(F)(F)F)cn1` [Example 49, (R)-2-(4-((R)-2-fluoro-9-hydroxy-9-(trifluoromethyl)-9H-fluoren-4-yl)-1H-pyrazol-1-yl)-N'-(4-fluorophenyl)propanehydrazide], at least 50%.
The compound `C[C@@H](C(=O)NNc1ccc(F)cc1)n1cc(-c2cc(F)cc3c2-c2ccccc2[C@]3(O)C(F)(F)F)cn1` [Example 50, (S)-2-(4-((R)-2-fluoro-9-hydroxy-9-(trifluoromethyl)-9H-fluoren-4-yl)-1H-pyrazol-1-yl)-N'-(4-fluorophenyl)propanehydrazide] registered an inhibition at 1 µM of at least 50%.
On to `C[C@H](C(=O)NNc1ccc(F)cc1)n1cc(-c2cc(F)cc3c2-c2ccccc2[C@@]3(O)C(F)(F)F)cn1` [Example 51, (R)-2-(4-((S)-2-fluoro-9-hydroxy-9-(trifluoromethyl)-9H-fluoren-4-yl)-1H-pyrazol-1-yl)-N'-(4-fluorophenyl)propanehydrazide], for which the inhibition at 1 µM was at least 50%.
Same read-out and setting: under `COc1cc(-c2cnn(C(C)C(=O)NN3CCCCC3)c2)c2c(c1)C(O)(C(F)(F)F)c1ccccc1-2` (centres unmarked) [Example 52, 2-(4-(9-hydroxy-2-methoxy-9-(trifluoromethyl)-9H-fluoren-4-yl)-1H-pyrazol-1-yl)-N-(piperidin-1-yl)propanamide] stands at least 50%; under `CC(C(=O)NN1CCCCC1)n1cc(-c2cc(F)cc3c2-c2ccccc2C3(O)C(F)(F)F)cn1` (centres unmarked) [Example 53, 2-(4-(2-fluoro-9-hydroxy-9-(trifluoromethyl)-9H-fluoren-4-yl)-1H-pyrazol-1-yl)-N-(piperidin-1-yl)propanamide], at least 50%; under `CC(C(=O)NN1CCCCCC1)n1cc(-c2cc(F)cc3c2-c2ccccc2C3(O)C(F)(F)F)cn1` (centres unmarked) [Example 54, N-(azepan-1-yl)-2-(4-(2-fluoro-9-hydroxy-9-(trifluoromethyl)-9H-fluoren-4-yl)-1H-pyrazol-1-yl)propanamide], at least 50%.

One may read the inhibition as the relative decrease from the control value, in per cent.
